In ChEMBL document CHEMBL1133550, “(2,2':6',2"-Terpyridine)platinum(II) complexes are irreversible inhibitors of Trypanosoma cruzi trypanothione reductase but not of human glutathione reductase” (J Med Chem, 2000):
Activity calls are given as the source filed them. The calls are words filed in the database; no cut-off is given here.

Columns and labels:
[1] = Half-life was measured in the presence of NADPH at 20 uM; No inhibition; assay type: ADME
[2] = target: Trypanothione reductase (Trypanosoma cruzi) (UniProt P28593); assay: Tested for inhibition of NADPH-reduced trypanothione reductase (TR)
[3] = Half-life was measured in the presence of NADPH at 20 uM; assay type: ADME
[4] = target: Trypanothione reductase (Trypanosoma cruzi) (UniProt P28593); assay: Tested for inhibition of NADPH-reduced trypanothione reductase (TR); No inhibition

Chain of UniProt P28593 (P28593 whole entry, looked up): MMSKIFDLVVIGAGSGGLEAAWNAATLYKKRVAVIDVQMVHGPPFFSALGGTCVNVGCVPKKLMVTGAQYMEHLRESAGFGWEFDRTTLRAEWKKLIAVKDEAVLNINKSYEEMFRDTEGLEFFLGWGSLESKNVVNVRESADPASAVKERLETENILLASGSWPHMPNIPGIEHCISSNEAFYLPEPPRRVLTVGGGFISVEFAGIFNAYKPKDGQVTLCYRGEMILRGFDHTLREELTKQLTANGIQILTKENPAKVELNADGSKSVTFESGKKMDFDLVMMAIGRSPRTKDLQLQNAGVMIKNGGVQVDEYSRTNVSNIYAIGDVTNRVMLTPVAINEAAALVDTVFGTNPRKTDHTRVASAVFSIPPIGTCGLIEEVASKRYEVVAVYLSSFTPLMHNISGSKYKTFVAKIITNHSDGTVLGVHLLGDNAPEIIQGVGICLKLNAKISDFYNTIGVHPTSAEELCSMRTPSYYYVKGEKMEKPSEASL

Row | K obs [2] [M⁻¹ s⁻¹] | T1/2 [3] [min] | Substance | further results
1 | – | – | (S-Glutathionato)-(4'-Chloro-2,2':6'2''-terpyridine)platinum (II) Nitrate [listing 1 of 2 here] | NI [1]: Not Active
2 | 85 | – | (4-Picoline)(2,2':6'2''-terpyridine)platinum (II) Bis (tetrafluoroborate) [listing 1 of 2 here] | –
3 | – | 35 | (2-Hydroxyethanethiolato)(2,2':6'2''-terpyridine)platinum (II) Nitrate [listing 1 of 2 here] | –
4 | – | 11 | (4-Picoline)(2,2':6'2''-terpyridine)platinum (II) Bis (tetrafluoroborate) [listing 2 of 2 here] | –
5 | 40 | – | (2-Hydroxyethanethiolato)(2,2':6'2''-terpyridine)platinum (II) Nitrate [listing 2 of 2 here] | –
6 | – | – | (S-Glutathionato)-(4'-Chloro-2,2':6'2''-terpyridine)platinum (II) Nitrate [listing 2 of 2 here] | NI [4]: inactive
